These are literature values, as cited in US20210401736A1, “SEMI-SOLID CHEWABLE GEL CANNABINOID COMPOSITIONS AND METHODS OF MAKING AND USING THEREOF” (Seattle Gummy Company, priority 2019, published 2021).

Series [1] concerns alpha2-adrenergic receptor.
The next series concerns the target CB1 receptor (Homo sapiens, UniProt P21554).
The next series addresses T1, 5-HT1A receptor (Homo sapiens, UniProt P08908).
T1 sequence (P08908 1-422): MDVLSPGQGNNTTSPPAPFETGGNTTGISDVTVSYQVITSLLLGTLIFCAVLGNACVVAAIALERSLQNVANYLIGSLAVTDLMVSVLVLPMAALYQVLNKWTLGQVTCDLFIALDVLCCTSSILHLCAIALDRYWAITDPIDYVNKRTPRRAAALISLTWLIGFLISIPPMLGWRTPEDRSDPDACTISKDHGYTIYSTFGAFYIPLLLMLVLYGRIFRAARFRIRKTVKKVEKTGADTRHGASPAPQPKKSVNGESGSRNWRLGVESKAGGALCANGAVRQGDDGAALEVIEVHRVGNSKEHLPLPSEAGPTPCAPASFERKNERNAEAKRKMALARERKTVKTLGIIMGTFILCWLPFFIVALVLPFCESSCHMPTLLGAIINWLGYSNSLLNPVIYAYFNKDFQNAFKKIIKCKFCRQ

For series [2] the following is noted: 5 mg of CBN versus 10 mg dose of diazepam, according to studies.

CB1 receptor, sequence (P21554 whole entry): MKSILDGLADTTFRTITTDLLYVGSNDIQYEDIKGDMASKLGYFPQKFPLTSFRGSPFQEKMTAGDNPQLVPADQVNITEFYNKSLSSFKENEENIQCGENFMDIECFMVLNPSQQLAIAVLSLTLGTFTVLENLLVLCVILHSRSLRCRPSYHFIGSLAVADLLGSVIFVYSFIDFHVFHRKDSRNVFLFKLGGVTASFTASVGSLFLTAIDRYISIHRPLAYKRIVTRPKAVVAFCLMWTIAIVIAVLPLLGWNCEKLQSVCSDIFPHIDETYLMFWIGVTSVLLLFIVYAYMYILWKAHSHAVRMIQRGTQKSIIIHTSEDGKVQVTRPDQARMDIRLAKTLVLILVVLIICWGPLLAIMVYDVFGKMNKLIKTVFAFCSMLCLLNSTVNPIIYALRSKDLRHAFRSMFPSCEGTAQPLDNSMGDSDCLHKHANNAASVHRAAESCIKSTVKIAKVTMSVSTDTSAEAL

For the compound `C=C(C)[C@@H]1CCC(C)=C[C@H]1c1c(O)cc(CCCCC)cc1O` [CBD, cannabidiol, reference compound], the “solubility in polyols such as glycerol” value is listed as “low solubility” and the solubility in water result was “water insoluble”.

`CCCCCc1cc(O)c(C/C=C(\C)CCC=C(C)C)c(O)c1` [CBG, cannabigerol]: the “solubility in polyols such as glycerol” value was “low solubility” and the solubility in water result is on record as “water insoluble”. The “affinity, alpha2-adrenergic receptor agonist” value in series [1] is “high affinity”. Also, the “affinity, CB1 receptor antagonist” value at CB1 receptor is given as “low affinity”. Besides, the “affinity, 5-HT1A receptor antagonist” value on 5-HT1A receptor is “moderate affinity”.

In the case of `CCCCCc1cc(O)c2c(c1)OC(C)(C)c1ccc(C)cc1-2` [CBN, cannabinol], in series [2], the sedative effect entry is recorded as “as effective as 10 mg dose of diazepam”.
